Test results published in paper PMC10146491, “Meroterpenoids from Gongolaria abies-marina against Kinetoplastids: In Vitro Activity and Programmed Cell Death Study” (Pharmaceuticals, 2023).

Assays:
[1] = test system: promastigotes of L. amazonensis; assay: Leishmanicidal activity assay (Alamar Blue), promastigotes; assay type: cell-based, Leishmania amazonensis; conditions: for Selectivity index (CC50/IC50), L. amazonensis: CC50 in murine macrophages; for IC50: Leishmania amazonensis, 72 h, Alamar Blue, read-out: Antikinetoplastid activity IC50, L. amazonensis
Procedure: (§1) To carry out the experiments, promastigotes of Leishmania amazonensis (MHOM/BR/77/LTB0016) and L. donovani (MHOM/IN/90/GE1F8R) and epimastigotes of Trypanosoma cruzi (Y strain) were employed. Leishmania species were cultured in Schneider’s medium (Sigma-Aldrich, Madrid, Spain), supplemented with 10% fetal bovine serum (VWR, Biowest, Nuaillé, France) and incubated at 26 °C. RPMI 1640 medium (Gibco, Thermo Fisher, Madrid, Spain) with or without phenol red was also used to culture the parasites at the same temperature. Epimastigotes of T. cruzi were cultured in liver infusion tryptose (LIT) medium supplemented with 10% fetal bovine serum at 26 °C. A cytotoxicity assay was performed using a murine macrophage cell line J774A.1 (ATCC TIB-67), which was maintained in Dulbecco’s modified Eagle’s medium (Gibco, Thermo Fisher, Madrid, Spain) supplemented with 10% of fetal bovine serum at 37 °C in a 5% CO2 atmosphere.
(§2) With the objective of determining the antiparasitic activity of the compounds isolated from G. abies-marina, leishmanicidal activity assays were performed against promastigote stages of L. amazonensis and L. donovani, as well as a trypanocidal activity assay performed against epimastigote stages of T. cruzi. In both parasites, a colorimetric assay was used based on the Alamar Blue reagent (Life Technologies, Madrid, Spain) as previously described by Bethencourt-Estrella et al. (2021).
(§3) In a sterile 96 well-plate, serial dilutions of the extracts, fractions or compounds isolated from G. abies-marina were performed in RPMI 1640 medium without phenol red (in the case of Leishmania spp.) or in LIT (in the case of T. cruzi) with a final volume of 100 µL. Parasites were added to wells to reach a concentration of 5 × 10^5 (Leishmania spp.) or 2.5 × 10^5 (T. cruzi) until a final volume of 200 µL/well. Next, 10% of Alamar Blue® was placed into each well and the plate was incubated for 72 h at 26 °C. Finally, the fluorescence of each well was measured using an EnSpire® Multimode Plate Reader (Perkin Elmer, Madrid, Spain) (544 nm excitation, 590 nm emission) and the concentration that inhibits 50% of the parasite population (IC50) was calculated using a non-linear regression analysis with 95% confidence limits. Miltefosine and benznidazol were used as reference drugs. To analyze the data and calculate the IC50, SigmaPlot 12.0 statistical analysis software (Systat Software Inc, Palo Alto, CA, USA) was used.
(§4) The 50% inhibitory concentration (IC50) and 50% cytotoxic concentration (CC50) values were obtained using Sigma Plot 12.0 statistical analysis software (Systat Software) and calculated using a non-linear regression analysis with 95% confidence limits. Leishmanicidal and trypanocidal activity assays, as well as cytotoxicity assays, were performed three times on different days, and the results were expressed as means ± standard deviations. The analysis of variance was determined using a one-way ANOVA using the GraphPad.PRISM® 9.0 software program (GraphPad Software, San Diego, CA, USA). Differences at p < 0.05 were considered statistically significant.

[2] = test system: promastigotes of L. donovani; assay: as above; assay type: cell-based, Leishmania donovani; conditions: for Selectivity index (CC50/IC50), L. donovani: CC50 in murine macrophages; for IC50: Leishmania donovani, 72 h, Alamar Blue, read-out: Antikinetoplastid activity IC50, L. donovani
Procedure: as §1, §2, §3, §4

[3] = test system: epimastigotes of Trypanosoma cruzi; assay: Trypanocidal activity assay (Alamar Blue), epimastigotes; assay type: cell-based; conditions: for Selectivity index (CC50/IC50), T. cruzi: CC50 in murine macrophages; for IC50: Trypanosoma cruzi, 72 h, Alamar Blue, read-out: Antikinetoplastid activity IC50, T. cruzi
Procedure: as §1, §2, §3, §4

[4] = Cytotoxicity assay (Alamar Blue); assay type: cell-based; conditions: mouse, J774A.1 murine macrophage cell line, J774A.1, 24 h, read-out: Cytotoxicity CC50, murine macrophages
Procedure: as §1
In a sterile 96-well plate, murine macrophages of the cell line J774A.1 were placed to reach an amount of 10^5 cells per well using RPMI 1640 medium without phenol red. After murine macrophage attachment, 50 µL serial dilutions of the isolated compounds were added in each well until reaching a final volume of 100 µL. Next, 10% of Alamar Blue® was placed into each well and the plate was incubated for 24 h at 37 °C with a 5% CO2 atmosphere. Finally, the plates were analyzed using an EnSpire® Multimode Plate Reader (PerkinElmer, Madrid, Spain), as described in the previous section, and the 50% cytotoxic concentration (CC50) values were calculated.
as §4

[5] = test system: intracellular amastigotes of L. amazonensis; assay: In vitro effect against amastigote stage in infected macrophages; assay type: cell-based, Leishmania amazonensis; conditions: for Selectivity index (CC50/IC50), amastigotes of L. amazonensis: CC50 in murine macrophages; for IC50: Leishmania amazonensis, J774.A1, intracellular amastigotes in J774A.1 macrophages, 24 h treatment
Procedure: To determine the in vitro effect against the amastigote stage of L. amazonensis, murine macrophages were infected. In a sterile 96 well-plate, macrophages of the J774A.1 cell line were placed in RPMI 1640 to reach 10^5 macrophages per well. This plate was incubated at 37 °C in a 5% CO2 atmosphere. After one hour of incubation, 100 µL of stationary-phase promastigotes of 7-day-old culture was added in a 10:1 ratio (10^6 parasites per well) and the plates were re-incubated at 37 °C for 24 h to achieve maximum infection. Then, the wells were washed with fresh medium to remove non-phagocytosed promastigotes. The infected macrophages were treated with the compounds isolated for 24 h. Then, the medium was removed carefully to be replaced by 30 μL of 0.05% SDS and the plate was shaken for 30 s. After broke macrophages, 170 μL of Schneider’s medium was added to each well to give a final volume of 200 μL and 20 μL of Alamar Blue® was added to the plate being incubated at 26 °C for 72 h, as described by López-Arencibia et al. (2017). After 72 h of incubation, the plates were analyzed using the same protocol for the promastigote test.

[6] = test system: L. amazonensis promastigotes; assay: ATP level analysis (Cell Titer-Glo); assay type: cell-based, Leishmania amazonensis; conditions: IC90 of compound, 24 h
Procedure: To study the mechanism of cell death induced in parasites by compounds isolated from Gongolaria abies-marina, a common step was carried out to perform the following five experiments. The promastigotes of Leishmania spp. and epimastigotes of T. cruzi were incubated at the IC90 levels of the compounds (previously calculated) for 24 h at 26 °C. After incubation, the parasites were centrifuged at 3000 rpm for 10 min at 4 °C. The pellets were resuspended following the manufacturer’s instructions for each kit. After the incubation of promastigotes and epimastigotes of the parasites with the IC90 of the compounds, the changes in ATP levels were measured using a Cell Titer-Glo® Luminescent Cell Viability Assay (Promega, WI, USA). The assay was carried out in a white 96-well plate following the manufacturer’s instructions, as previously described by Cartuche et al. (2020). The luminescence was measured using an EnSpire® Multimode Plate Reader (PerkinElmer, Madrid, Spain).

[7] = test system: L. amazonensis promastigotes; assay: Transmission electron microscopy, ultrastructural effects; assay type: cell-based, Leishmania amazonensis; conditions: IC90, 24 h
Procedure: (§5) The analysis of the ultrastructural and morphological damage caused by the compounds in the parasites was performed in collaboration with the Facultad de Estudios Superiores Iztacala (FESI), Medicina, UNAM (Mexico). These assays were performed after incubation of the promastigotes of L. amazonensis and epimastigotes of T. cruzi at the IC90 levels of the pure compounds over 24 h. TEM images were obtained using the conventional microscopy technique as previously described by Castelan-Ramirez et al. in a JEOL JEM-1011 transmission electron microscope (JEOL Ltd., Tokyo, Japan).

T. cruzi epimastigotes [8] = assay: as above; assay type: cell-based, Trypanosoma cruzi; conditions: IC90, 24 h
Procedure: as §5

T. cruzi epimastigotes [9] = assay: Mitochondrial membrane potential (JC-1 assay); assay type: cell-based, Trypanosoma cruzi; conditions: IC90, 24 h
Procedure: To study the mechanism of cell death induced in parasites by compounds isolated from Gongolaria abies-marina, a common step was carried out to perform the following five experiments. The promastigotes of Leishmania spp. and epimastigotes of T. cruzi were incubated at the IC90 levels of the compounds (previously calculated) for 24 h at 26 °C. After incubation, the parasites were centrifuged at 3000 rpm for 10 min at 4 °C. The pellets were resuspended following the manufacturer’s instructions for each kit. A JC-1 Mitochondrial Membrane Potential Assay Kit® (Cayman Chemical, Ann Arbor, MI, USA) was used to analyze variations in the mitochondrial membrane potential of the parasites after incubation at the IC90 levels of the compounds. After centrifugation, the parasites were resuspended in the same buffer and transferred to a black 96-well plate. JC-1 was added following the manufacturer’s instructions as also described by López-Arencibia et al. (2020). Green and red fluorescence was measured using an EnSpire® Multimode Plate Reader (PerkinElmer, Madrid, Spain).

[10] = listed as 6Z-1′-methoxyamentadione
[11] = listed as 6Z-1′-methoxyamentadione (3)

Compound	Selectivity index (CC50/IC50), L. amazonensis [1]	IC50 [1]	Selectivity index (CC50/IC50), L. donovani [2]	IC50 [2]	Selectivity index (CC50/IC50), T. cruzi [3]	IC50 [3]	CC50 at 24 h [4]	Selectivity index (CC50/IC50), amastigotes of L. amazonensis [5]	IC50 [5]	ATP levels relative to negative control [6]	further results
COc1c(C)cc(O)cc1C/C=C(\C)CC(=O)/C=C(/C)CCC[C@@H](C)C(=O)/C=C/C(C)(C)O [6Z-1′-Methoxyamentadione (3), 6Z-1′-methoxyamentadione]	5.49	~4.88 µM	0.27	97.9 ± 5.32 µM	8.19	3.26 ± 0.11 µM	26.8 ± 4.06 µM	1.66	16.2 ± 2.61 µM	greatest effect	Ultrastructural and morphological alterations (TEM) [7, 10]: mitochondrial expansion (M), chromatin condensation in the nucleus (*), intense vacuolization (V), the formation of some autophagy vacuoles; Ultrastructural and morphological alterations (TEM) [7, 11]: alteration of the flagellar pocket; Ultrastructural and morphological alterations (TEM) (T. cruzi epimastigotes [8]; [10]): morphological mitochondrial (M) and kinetoplast (K) alterations, chromatin condensation in the nucleus (*), intense vacuolization (V) and the formation of some autophagy vacuoles; Ultrastructural and morphological alterations (TEM) (T. cruzi epimastigotes [8]; [11]): Morphological alterations of the mitochondria and kinetoplast
O=C(Cn1ccnc1[N+](=O)[O-])NCc1ccccc1 [Benznidazole, benznidazole, reference compound]	–	–	–	–	57.51	6.95 ± 0.5 µM	–	–	–	–	–
COc1c(C)cc(O)cc1C/C=C(\C)CC(=O)/C=C(\C)CCC[C@@H](C)C(=O)/C=C/C(C)(C)O [1′-Methoxyamentadione (4), 1′-methoxyamentadione]	5.41	~4.88 µM	0.21	126.5 ± 1.15 µM	5.36	4.93 ± 0.55 µM	26.4 ± 2.27 µM	0.96	27.6 ± 1.68 µM	–	Ultrastructural and morphological alterations (TEM) ([7]; listed as 1′-methoxyamentadione): mitochondrial expansion (M), chromatin condensation in the nucleus (*), intense vacuolization (V), the formation of some autophagy vacuoles; Ultrastructural and morphological alterations (TEM) ([7]; listed as 1′-methoxyamentadione (4)): alteration of the flagellar pocket; Ultrastructural and morphological alterations (TEM) ([7]; listed as 4): showed two nuclei; Ultrastructural and morphological alterations (TEM) (T. cruzi epimastigotes [8]): morphological mitochondrial (M) and kinetoplast (K) alterations, chromatin condensation in the nucleus (*), intense vacuolization (V) and the formation of some autophagy vacuoles
COc1c(C)cc(O)cc1C/C=C(\C)CC(=O)C/C(C)=C/CC[C@@H](C)C(=O)/C=C/C(C)(C)O [Gongolarone B (2), gongolarone B]	3.79	6.45 ± 0.44 µM	–	–	8.36	2.92 ± 0.25 µM	24.4 ± 3.98 µM	1.50	16.2 ± 1.9 µM	decreased	Activity against L. donovani (in words) [2]: lost its activity; Mitochondrial membrane potential changes (JC-1) (T. cruzi epimastigotes [9]): greatest decrease; Ultrastructural and morphological alterations (TEM) [7]: mitochondrial expansion (M), chromatin condensation in the nucleus (*), intense vacuolization (V), the formation of some autophagy vacuoles; Ultrastructural and morphological alterations (TEM) (T. cruzi epimastigotes [8]; listed as gongolarone B): morphological mitochondrial (M) and kinetoplast (K) alterations, chromatin condensation in the nucleus (*), intense vacuolization (V) and the formation of some autophagy vacuoles; Ultrastructural and morphological alterations (TEM) (T. cruzi epimastigotes [8]; listed as gongolarone B (2)): Morphological alterations of the mitochondria and kinetoplast
CCCCCCCCCCCCCCCCOP(=O)([O-])OCC[N+](C)(C)C [Miltefosine, miltefosine, reference compound]	11.10	6.48 ± 0.1 µM	21.80	3.31 ± 0.11 µM	–	–	72.2 ± 1.25 µM	23.16	3.12 ± 0.12 µM	–	–
